According to patent US10065972B2, “Bicyclic or tricyclic heterocyclic compound” (MITSUBISHI TANABE PHARMA CORPORATION, priority 2014, dated 2018):

Target: human recombinant KAT-II (Homo sapiens (Human), UniProt Q8N5Z0)
Test: KAT-II inhibitory test
Type: biochemical
Conditions: 3.0 μmol/L kynurenine, 37° C., 1 hr, pH 8.0; kynurenic acid quantified by HPLC
Procedure: The compounds described in the above-mentioned Examples were used for the KAT-II inhibitory test.
Preparation of Human Recombinant KAT-II
Human recombinant KAT-II was prepared as follows.
His tag and maltose binding protein tag were added to the N-terminal of a gene encoding human KAT-II (Genbank accession number: AF481738.1), and the obtained gene was incorporated into pET32 (Merck Nihon Millipore), which is an Escherichia coli expression vector. Human recombinant KAT-II produced by BL21(DE3) Escherichia coli (Merck Nihon Millipore, 69450) transformed using the plasmid was purified using an amylose resin column (New England Biolabs, #800-21 L).
The inhibitory action of the test compound on human recombinant KAT-II was determined by the following method.
To a reaction mixture (45 μL) containing 3.0 μmol/L kynurenine, 10 μmol/L pyridoxal phosphate, 2.0 ng/μL human recombinant KAT-II, and 150 mmol/L tris(hydroxymethyl)aminomethane-acetate buffer (pH 8.0) was added a 10% dimethyl sulfoxide solution (5 μL) of each test compound prepared, and the mixture was reacted at 37° C. for 1 hr. After the reaction, 50% trichloroacetic acid (5 μL) was added to terminate the reaction.
The resultant kynurenic acid was quantified as follows by high performance liquid chromatography. An enzyme reaction mixture was separated by an octadecylsilane reversed-phase column (SC-50DS, Eicom Corporation; mobile phase: 250 mmol/L zinc acetate, 50 mmol/L sodium acetate, and 5.0% acetonitrile (pH 6.2)) incubated at 30° C., and kynurenic acid was quantified using a fluorescence detector (RF-20Axs, Shimadzu Corporation) at excitation wavelength 354 nm, detection wavelength 460 nm. The analytical curve was drawn every time by an external standard method. Each test compound was tested by dual measurement at each concentration.

human recombinant KAT-II, sequence (Q8N5Z0 30-425): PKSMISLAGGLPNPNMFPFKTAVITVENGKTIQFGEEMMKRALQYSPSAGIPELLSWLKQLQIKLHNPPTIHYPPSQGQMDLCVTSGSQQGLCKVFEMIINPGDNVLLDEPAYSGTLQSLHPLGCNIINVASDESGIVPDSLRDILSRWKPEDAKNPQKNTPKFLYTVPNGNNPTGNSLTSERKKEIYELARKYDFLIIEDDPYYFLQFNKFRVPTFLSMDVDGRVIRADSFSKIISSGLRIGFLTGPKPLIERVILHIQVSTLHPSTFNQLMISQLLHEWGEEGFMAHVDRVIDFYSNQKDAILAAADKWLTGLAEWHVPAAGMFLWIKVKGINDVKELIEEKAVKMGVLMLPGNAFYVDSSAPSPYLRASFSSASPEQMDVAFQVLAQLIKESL

Row | IC50 | Compound
1 | 3900 nM | Cc1cc(=O)n2nc(N3C[C@@H]4C[C@@H]4[C@@H]3C(=O)NCc3ccccc3)sc2n1 (racemic) [Example 661, (1SR,2RS,5RS)-N-benzyl-3-(7-methyl-5-oxo-5H-[1,3,4]thiadiazolo[3,2-a]pyrimidin-2-yl)-3-azabicyclo[3.1.0]hexane-2-carboxamide]
2 | 610 nM | Cn1c(CN2CCOCC2)nc2sc([C@H]3CCCN3C(=O)OCc3ccccc3)nc2c1=O [Example 8, (R)-2-{6-methyl-5-[(morpholin-4-yl)methyl]-7-oxo-6,7-dihydro[1,3]thiazolo[5,4-d]pyrimidin-2-yl}pyrrolidine-1-carboxylic acid benzyl ester]
3 | 250 nM | CCc1nc2sc([C@H]3CCCN3C(=O)NCc3ccccc3)nc2c(=O)n1C [Example 9, (R)-N-benzyl-2-(5-ethyl-6-methyl-7-oxo-6,7-dihydro[1,3]thiazolo[5,4-d]pyrimidin-2-yl)pyrrolidine-1-carboxamide]
4 | 6200 nM | CC(C)n1c(C(F)(F)F)nc2sc([C@H]3CCCN3C(=O)NCc3ccccc3Cl)nc2c1=O [Example 11, (R)-N-(2-chlorobenzyl)-2-[7-oxo-6-(propan-2-yl)-5-trifluoromethyl-6,7-dihydro[1,3]thiazolo[5,4-d]pyrimidin-2-yl]pyrrolidine-1-carboxamide]
5 | 130 nM | CCc1nc2sc([C@H]3CCCN3C(=O)NC3(c4ccccc4)CC3)nc2c(=O)n1C [Example 12, (R)-2-(5-ethyl-6-methyl-7-oxo-6,7-dihydro[1,3]thiazolo[5,4-d]pyrimidin-2-yl)-N-(1-phenylcyclopropyl)pyrrolidine-1-carboxamide]
6 | 560 nM | CCc1nc2sc([C@H]3CCCN3C(=O)N[C@@H]3CCc4ccccc43)nc2c(=O)n1C [Example 13, (R)-5-ethyl-2-{1-[((R)-indan-1-yl)aminocarbonyl]pyrrolidin-2-yl}-6-methyl-6,7-dihydro[1,3]thiazolo[5,4-d]pyrimidin-7-one]
7 | 57 nM | CCc1nc2sc([C@H]3CCCN3C(=O)CN3CCCc4ccccc43)nc2c(=O)n1C [Example 14, (R)-2-{1-[2-(3,4-dihydro-2H-quinolin-1-yl)acetyl]pyrrolidin-2-yl}-5-ethyl-6-methyl-6H-[1,3]thiazolo[5,4-d]pyrimidin-7-one]
8 | 1100 nM | CCc1nc2sc([C@H]3CCCN3C(=O)NC(C)(C)c3ccccc3)nc2c(=O)n1C [Example 15, (R)-2-(5-ethyl-6-methyl-7-oxo-6,7-dihydro[1,3]thiazolo[5,4-d]pyrimidin-2-yl)-N-(1-methyl-1-phenylethyl)pyrrolidine-1-carboxamide]
9 | 1600 nM | CCc1nc2sc([C@H]3CCCN3C(=O)N[C@H](C)c3ccccc3)nc2c(=O)n1C [Example 17, (R)-2-(5-ethyl-6-methyl-7-oxo-6,7-dihydro[1,3]thiazolo[5,4-d]pyrimidin-2-yl)-N-((R)-1-phenylethyl)pyrrolidine-1-carboxamide]
10 | 43 nM | Cc1noc(-c2nc3sc([C@H]4CCCN4C(=O)Oc4ccccc4)nc3c(=O)n2C)n1 [Example 19, (R)-2-[6-methyl-5-(3-methyl-[1,2,4]oxadiazol-5-yl)-7-oxo-6,7-dihydro[1,3]thiazolo[5,4-d]pyrimidin-2-yl]pyrrolidine-1-carboxylic acid phenyl ester]
11 | 25 nM | CCc1nc2sc([C@H]3CCCN3C(=O)Oc3ccccc3)nc2c(=O)n1C [Example 28, (R)-2-(5-ethyl-6-methyl-7-oxo-6,7-dihydro[1,3]thiazolo[5,4-d]pyrimidin-2-yl)pyrrolidine-1-carboxylic acid phenyl ester]
12 | 400 nM | Cc1nc2sc([C@H]3CCCN3C(=O)Oc3ccccc3)nc2c(=O)n1C1CCOCC1 [Example 32, (R)-2-[5-methyl-7-oxo-6-(tetrahydro-2H-pyran-4-yl)-6,7-dihydro[1,3]thiazolo[5,4-d]pyrimidin-2-yl]pyrrolidine-1-carboxylic acid phenyl ester]
13 | 18 nM | Cc1cccc(OC(=O)N2CCC[C@@H]2c2nc3c(=O)n(C)c(C4CCOCC4)nc3s2)c1 [Example 36, (R)-2-[6-methyl-7-oxo-5-(tetrahydro-2H-pyran-4-yl)-6,7-dihydro[1,3]thiazolo[5,4-d]pyrimidin-2-yl]pyrrolidine-1-carboxylic acid 3-methylphenyl ester]
14 | 15 nM | CC(C)c1nc2sc([C@H]3CCCN3C(=O)Oc3ccccc3)nc2c(=O)[nH]1 [Example 63, (R)-2-[7-oxo-5-(propan-2-yl)-6,7-dihydro[1,3]thiazolo[5,4-d]pyrimidin-2-yl]pyrrolidine-1-carboxylic acid phenyl ester]
15 | 25 nM | O=C(Oc1ccccc1)N1CCC[C@@H]1c1nc2c(=O)[nH]c(-c3ccccc3)nc2s1 [Example 65, (R)-2-(7-oxo-5-phenyl-6,7-dihydro[1,3]thiazolo[5,4-d]pyrimidin-2-yl)pyrrolidine-1-carboxylic acid phenyl ester]
16 | 14 nM | O=C(Oc1ccccc1)N1CCC[C@@H]1c1nc2c(=O)[nH]c(-c3ccc(F)cc3F)nc2s1 [Example 67, (R)-2-[5-(2,4-difluorophenyl)-7-oxo-6,7-dihydro[1,3]thiazolo[5,4-d]pyrimidin-2-yl]pyrrolidine-1-carboxylic acid phenyl ester]
17 | 40 nM | Cc1ccccc1-c1nc2sc([C@H]3CCCN3C(=O)Oc3ccccc3)nc2c(=O)[nH]1 [Example 69, (R)-2-[5-(2-methylphenyl)-7-oxo-6,7-dihydro[1,3]thiazolo[5,4-d]pyrimidin-2-yl]pyrrolidine-1-carboxylic acid phenyl ester]
18 | 84 nM | O=C(Oc1ccccc1)N1CCC[C@@H]1c1nc2c(=O)[nH]c(C3CCC(F)(F)CC3)nc2s1 [Example 74, (R)-2-[5-(4,4-difluorocyclohexyl)-7-oxo-6,7-dihydro[1,3]thiazolo[5,4-d]pyrimidin-2-yl]pyrrolidine-1-carboxylic acid phenyl ester]
19 | 8.6 nM | O=C(Oc1ccccc1)N1CCC[C@@H]1c1nc2c(=O)[nH]c(C3(CF)CC3)nc2s1 [Example 80, (R)-2-{5-[1-(fluoromethyl)cyclopropyl]-7-oxo-6,7-dihydro[1,3]thiazolo[5,4-d]pyrimidin-2-yl}pyrrolidine-1-carboxylic acid phenyl ester]
20 | 6.1 nM | Cc1cccc(OC(=O)N2CCC[C@@H]2c2nc3c(=O)[nH]c(C4(C#N)CC4)nc3s2)c1 [Example 94, (R)-2-[5-(1-cyanocyclopropyl)-7-oxo-6,7-dihydro[1,3]thiazolo[5,4-d]pyrimidin-2-yl]pyrrolidine-1-carboxylic acid 3-methylphenyl ester]
21 | 19 nM | COCC1(c2nc3sc([C@H]4CCCN4C(=O)Oc4ccccc4)nc3c(=O)[nH]2)CC1 [Example 96, (R)-2-{5-[1-(methoxymethyl)cyclopropyl]-7-oxo-6,7-dihydro[1,3]thiazolo[5,4-d]pyrimidin-2-yl}pyrrolidine-1-carboxylic acid phenyl ester]
22 | 13 nM | O=C(Cc1ccccc1)N1CCC[C@@H]1c1nc2c(=O)[nH]c(C3(C(F)(F)F)CC3)nc2s1 [Example 97, 2-[(R)-1-(phenylacetyl)pyrrolidin-2-yl]-5-[1-(trifluoromethyl)cyclopropyl]-6H-[1,3]thiazolo[5,4-d]pyrimidin-7-one]
23 | 37 nM | Cc1cccc(CC(=O)N2CCC[C@@H]2c2nc3c(=O)[nH]c(C4(C(F)(F)F)CC4)nc3s2)c1 [Example 98, 2-{(R)-1-[2-(3-methylphenyl)acetyl]pyrrolidin-2-yl}-5-[1-(trifluoromethyl)cyclopropyl]-6H-[1,3]thiazolo[5,4-d]pyrimidin-7-one]
24 | 73 nM | CC1(Oc2nc3sc([C@H]4CCCN4C(=O)Oc4ccccc4)nc3c(=O)[nH]2)CC1 [Example 104, (R)-2-[5-(1-methylcyclopropoxy)-7-oxo-6,7-dihydro[1,3]thiazolo[5,4-d]pyrimidin-2-yl]pyrrolidine-1-carboxylic acid phenyl ester]
25 | 65 nM | O=C(Oc1ccccc1)N1CCC[C@@H]1c1nc2c(=O)[nH]c(OCC(F)(F)F)nc2s1 [Example 105, (R)-2-[7-oxo-5-(2,2,2-trifluoroethoxy)-6,7-dihydro[1,3]thiazolo[5,4-d]pyrimidin-2-yl]pyrrolidine-1-carboxylic acid phenyl ester]
26 | 69 nM | CN(C)c1nc2sc([C@H]3CCCN3C(=O)Oc3ccccc3)nc2c(=O)[nH]1 [Example 106, (R)-2-[5-(N,N-dimethylamino)-7-oxo-6,7-dihydro[1,3]thiazolo[5,4-d]pyrimidin-2-yl]pyrrolidine-1-carboxylic acid phenyl ester]
27 | 46 nM | O=C(Oc1ccccc1)N1CCC[C@@H]1c1nc2c(=O)[nH]c(N3CCCCC3)nc2s1 [Example 107, (R)-2-[7-oxo-5-(piperidin-1-yl)-6,7-dihydro[1,3]thiazolo[5,4-d]pyrimidin-2-yl]pyrrolidine-1-carboxylic acid phenyl ester]

Row | Compound | IC50
28 | C[C@H](c1nc2c(=O)[nH]c(C3(Cl)CC3)nc2s1)N(C)C(=O)Oc1ccccc1 [Example 85, N-{(R)-1-[5-(1-chlorocyclopropyl)-7-oxo-6,7-dihydro[1,3]thiazolo[5,4-d]pyrimidin-2-yl]ethyl}-N-methylcarbamic acid phenyl ester] | 170 nM
